The values that follow come from patent US5739117A, “Agent for improving cerebral metabolism including glucose ester derivatives” (Fujimoto Pharmaceutical Co., Ltd., priority 1993, dated 1998).

A short description of series [1]: Kinetic changes in radioactivities in the blood and the cerebral tissue after intravenous injection. It counts as in vivo, mice (ddy strain). The note with it: mice, i.v. tail vein. The procedure: Normal male mice of the ddy strain at 6 weeks of age were injected intravenously through tail vein with 0.05 ml of […] ^18 F in DMSO solution.
Kinetic changes in radioactivities in the blood and the cerebral tissue of the mice injected with ^18 F-AFDG.

Series [2] in a line: Intra-cerebral and blood concentrations of ^18 F-AFDG and its metabolites after intravenous injection. The note with it: mice. The format is in vivo. As for the experimental part: Mice were given an intravenous injection of 0.05 ml solution of 0.5 mM ^18 F-AFD in DMSO.

Bounds are passed on as bounds.

For `CC(=O)OC[C@H]1OC(OC(C)=O)[C@H]([18F])[C@@H](OC(C)=O)[C@@H]1OC(C)=O` (stereo partly drawn) [^18 F-AFDG, 1,3,4,6-tetra-O-acetyl-2-^18 F-D-glucose], in series [1] (0.05 ml in DMSO, FIG. 1), the “time up to which levels of radioactivity in the cerebral tissue increased” value is 30 min. For the same compound, the blood radioactivity levels entry in series [1] (0.05 ml in DMSO, following administration) is recorded as “decreased consistently following administration”. The “radioactivity in the cerebral tissue after administration” value in series [1] (0.05 ml in DMSO, immediately after administration) was “could be detected in the cerebral tissue immediately after administration”. In addition, the “radioactivity in the cerebral tissue compared with blood” value in series [1] (at 10 minutes of administration and thereafter) is listed as “higher in the cerebral tissue than in the blood”. Besides, in series [2] (i.v., 0.05 ml of 0.5 mM in DMSO, within 0.5 minute following administration), the “proportion that reached the cerebral tissue” value is recorded as “approximately 40%”. Further, the “extent metabolized into ^18 F-FDG-6-phosphate” value in series [2] (i.v., cerebral tissue, at 180 minutes) is recorded as “the entire ^18 F-AFDG was found to be metabolized into ^18 F-FDG-6-phosphate”.

For `O=P(O)(O)OC[C@H]1OC(O)[C@H]([18F])[C@@H](O)[C@@H]1O` (stereo partly drawn) [^18 F-FDG-6-phosphate], the “time of emergence of intra-cerebral metabolites” value in series [2] (i.v. ^18 F-AFDG, 0.5 mM in DMSO, cerebral tissue) was not above 0.5 min. The “concentration in the cerebral tissue over time” value in series [2] (i.v. ^18 F-AFDG, after 0.5 minute, FIG. 3) is listed as “raised markedly”. For the same compound, in series [2] (i.v. ^18 F-AFDG, at 5, 60 and 180 minutes, compared with blood, FIGS. 4 and 5), the “proportion among ^18 F-AFDG and metabolites in the cerebral tissue” value is recorded as “highest proportion in the cerebral tissue”.
